The results in this text go back to patent US20130195770A1, “COMPOSITION AND METHOD FOR REDUCING ATHEROSCLEROTIC LESIONS” (DuPont Nutrition Bioscience ApS, priority 2010, published 2013).

Data set [1] has as its system CaCo-2 cells. Briefly: Uptake of micellar cholesterol by CaCo-2 cells with or without unlabeled cholesteryl oleate. It is filed as cell-based, Human. The settings on record: CaCo-2 monolayers, 45 min at 37° C., [1,2-3H] cholesterol micelles with or without unlabeled cholesteryl oleate; p<0.001; FIG. 1A. An excerpt: (§1) Human colon adenocarcinoma (Caco-2) cells were kindly provided by J T Rasmussen (Department of Molecular Biology Aarhus University C. F. M0llers Alle 3DK-8000 Aarhus CDenmark). Cells were routinely maintained in NUNCLON flasks in Dulbecco's […] (DMEM) supplemented with 4.5g/1 glucose. 10% heat-inactivated fetal bovine serum (FBS), 1% nonessential amino acid (NEAA), and 1% antibiotics (complete medium), as previously described (Hidalgo I J. Raub T J. Borchardt R T, Gastroenterology, (1989) ar;96(3):736-49). Once the flasks reached 80% confiuency, the cells were dispersed and seeded into 24-well plates at density 10^5 cells/well in DMEM supplemented with 10% FBS and 1% NEAA. […]
(§2) Micelles were prepared according to the method described by Kirana (Kirana C. Rogers P F, Bennett L E, Abevwardena M Y, Patten G S, J Agric Food Chem. (2005) Jun. 1; 53(1 1):4623-7) with slight modifications. […] The particle size of micelles was determined by dynamic light scattering (DLS) with use of the Malvern Zetasizer Nano series machine using latex 60 nm Nanosphere Size Standard.
Monolayers were incubated at 37° C. for 45 min in micellar solutions containing [1,2-^3H] cholesterol with or without unlabeled cholesteryl oleate. […] The cells were analyzed as described above. […]

Data set [2] has as its system wild type male mice (C57BL/6J). Briefly: Intestinal absorption of cholesterol in mice, plasma dual isotope ratio method, with added cholesteryl oleate. Type of data set: in vivo. The settings on record: oral bolus [14C]-cholesterol + unlabeled cholesteryl oleate (molar ratio 1:1) in skimmed milk, plasma after three days; p<0.05; FIG. 2A. The method, then: The net intestinal absorption of cholesterol and cholesteryl esters was measured using the plasma dual isotope ratio method described in Wang et al (Journal of Lipid Research, [2003] 44, 1042-1059). This method is based on the simultaneous intragastric (IG) and intravenous (IV) administration of […], and measurement of plasma cholesterol isotope ratios at a set point in time. By definition, the […] corresponds to “100% absorption”, whereas the [^3H]-cholesterol found in the blood reflects the absorption by the gastrointestinal tract. The method allows correction for post-absorptive cholesterol metabolism and for colonic handling of the malabsorbed labelled cholesterol by […] Fifteen wild type male mice (C57BL/6J), age of 5 weeks were randomly assigned into 3 groups. An amount of 2.5 μCi of [^3H]-cholesterol was dissolved in 100 μl of phosphate buffered saline (PBS) and injected into the tail vein of non fasted and not-anesthetized animals. The animal were then given an oral bolus (IG) dose of either [^14C]-cholesterol, [^14C]-cholesterol+unlabeled cholesteryl oleate (molar ratio 1:1) or [^14C]-cholesteryl oleate dissolved in skimmed milk. […] The percent of cholesterol absorption in plasma was calculated using (1).

Data set [3] relates to CaCo-2 cells. Put plainly: Uptake of micellar cholesteryl oleate by CaCo-2 cells. To be noted: micelles containing [1,2-3H] cholesteryl oleate vs labeled cholesterol, FIG. 1B. It is filed as in vitro ADME, Human.
Description: as §1, §2
Differentiated Caco-2 cells were incubated at 37° C. for 1, 3 and 5 hours with micellar solutions containing ^3H-labelled cholesteryl oleate according to the method described above. […] For quantitative analysis ^14C-cholesterol was used as an external standard to correct for the extraction efficiency. […]

The test system of data set [4] is Transgenic mice. Put plainly: Aorta surface covered by atherosclerotic lesions, en face ORO staining. It is filed as in vivo. The settings on record: 28 weeks. An excerpt: The surface of aorta covered with atherosclerotic lesions was quantified as described by Palinski et al. (1994) and Zampolli et al. (2006). Non-fasted animals were anesthetized with pentobarbital injected intraperitoneally. Next, maximum volume of blood was collected from the heart by direct cardiac puncture of the right ventricle. Blood was kept for further analyses as described above. The heart and arterial tree were then flushed with a heparin-containing cardioplegic solution via a cannula inserted into the left ventricle, followed by perfusion with formalin for 5 minutes. The arterial tree was exposed, branching arteries were removed and entire aorta was dissected from the aortic arch down to the iliac bifurcation. Using a stereomicroscope, aortas were cleaned from periadventitial tissue; remaining branches were cut off and opened longitudinally by incision following the inner curvature of the aortic arch and the ventral side of the aorta. Additional incisions followed the outer curvature of the arch to the subclavian artery. An Oil Red 0 (ORO) staining solution was prepared by diluting the ORO stock solution (5 mg/ml in 2-propanol; Sigma Aldrich) with deionized water (6:4). Dissected aortas were stained for 30 minutes with ORO, followed by rinsing with 2-propanol and deionized water. Stained aortas were then laid flat on the microscope slide with endothelial side facing upwards. The tissues were mounted with aqueous mounting agent (Aquatex®, Merck Chemicals, Darmstadt, Germany) and covered with glass slide cover slip.
Digital images of the slides were obtained through the 48-bit color scanner (Canoscan 9950F, Canon) with 1200 DPI resolution. The images were captured in Photoshop CS3 Extended software and converted to gray scale. After further processing, including sharpness, contrast and brightness adjustments, and the image of aorta was printed out in two copies. […] Images of a hand-drawn aorta outlines and regions (patches) matching atherosclerotic lesions were then scanned and re-imported into Adobe Photoshop and the images were then evaluated obtain the percent of aorta covered with atherosclerotic lesions. Briefly, in the digitized image of entire aorta and the image of the patches corresponding to lesions, red outlined areas were converted to black and the blackness values for all pixels in the image were summed and counted.
Transgenic mice were randomized into 5 dietary regiments: (1) Normal chow (NC), (2) NC+0.2% cholesterol oleate (CLE), (3) Western type diet (WD) containing 0.2% cholesterol, (4) WD containing 0.2% cholesterol and 0.2% CLE, (5) WD containing 0.1% cholesterol and 0.1% CLE. The extent of the lesions was quantified as percent area positive to lipid staining by ORO in the entire aorta after 28 weeks of experimental treatments.

Data set [5] deals with wild type male mice (C57BL/6J). Put plainly: Intestinal absorption of cholesteryl oleate in mice, plasma dual isotope ratio method. Type of data set: in vivo. To be noted: oral bolus [14C]-cholesteryl oleate in skimmed milk, plasma after three days; p<0.001; FIG. 2B.
Description: The net intestinal absorption of cholesterol and cholesteryl esters was measured using the plasma dual isotope ratio method described in Wang et al (Journal of Lipid Research, [2003] 44, 1042-1059). This method is based on the simultaneous intragastric (IG) and intravenous (IV) administration of [^3H] -cholesterol and [^14C] -cholesterol, respectively, and measurement of plasma cholesterol isotope ratios at a set point in time. By definition, the IV [^14C]-cholesterol dose corresponds to “100% absorption”, whereas the [^3H]-cholesterol found in the blood reflects the absorption by the gastrointestinal tract. The method allows correction for post-absorptive cholesterol metabolism and for colonic handling of the malabsorbed labelled cholesterol by defining Fifteen wild type male mice (C57BL/6J), age of 5 weeks were randomly assigned into 3 groups. An amount of 2.5 μCi of [^3H]-cholesterol was dissolved in 100 μl of phosphate buffered saline (PBS) and injected into the tail vein of non fasted and not-anesthetized animals. The animal were then given an oral bolus (IG) dose of either [^14C]-cholesterol, [^14C]-cholesterol+unlabeled cholesteryl oleate (molar ratio 1:1) or [^14C]-cholesteryl oleate dissolved in skimmed milk. […] The percent of cholesterol absorption in plasma was calculated using (1).

Turning to `CCCCCCCC/C=C\CCCCCCCC(=O)O[C@H]1CC[C@@]2(C)C(=CC[C@H]3[C@@H]4CC[C@H]([C@H](C)CCCC(C)C)[C@@]4(C)CC[C@@H]32)C1` [cholesteryl oleate], the “more cholesterol accumulated by cells incubated with cholesterol micelles alone compared to micelles containing both cholesterol and cholesteryl oleate” value in data set [1] came out at 30%. Also, in data set [2], the “reduction in cholesterol adsorption compared to [14C]-cholesterol treated mice” value was 12%. The “fold less labeled sterol in cells incubated with cholesteryl oleate micelles compared to cholesterol micelles” value in data set [3] was “approximately 2 fold”. In data set [4] (WD vs WD+0.2% CLE and WD+0.1% CLE, FIGS. 3 and 4), the “effect on atherosclerotic lesions in Western type diet” value is on record as “lowered atherosclerotic lesions”. In addition, the “rate of atherosclerosis, WD+0.2% CLE compared with WD+0.1% CLE” value in data set [4] (mice fed WD+0.2% CLE) was “higher rates of atherosclerosis than mice fed with WD+0.1% CLE”. The “total plaque area (percent area positive to ORO in the entire aorta)” value in data set [4] (normal chow (NC)+0.2% CLE) stood at 1.2±0.9%. Further, the “difference in plaque formation between NC and NC+0.2% CLE” value in data set [4] (normal chow) was “no difference between those two treatments”. In addition, the “reduction in cholesterol uptake compared to mice treated with [14C]-cholesterol” value in data set [5] was found to be 50%.
